# Test results reported in PubChem BioAssay AID464 (The Scripps Research Institute Molecular Screening Center, 2006).
# Active and inactive are the calls of the source.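 How the source made its calls: active means Compounds that kill half the cells at a concentration of 5 micromolar or below, from the fitted or estimated CC50; inactive means CC50 above 5 micromolar.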
# Test system: Jurkat E6.1 viability, ATP luminescence, 48 h
# Test: viability loss in Jurkat T cells – cell-based, ATP luminescence, 48 h, 60K MLSMR, cytotoxicity control, dose response (AID 464)
row,SMILES,CC50
1,COc1ccc(N2CCn3c2nc2c3c(=O)n(CCCc3ccccc3)c(=O)n2C)c(OC)c1,> 40 µM (inactive)
2,CC(=O)C(C(C)=O)c1c(Cl)c(O)c(O)c2c(C(=O)c3ccccc3)coc12,8.76 µM (inactive)
3,O=S(=O)(CCSc1ccccn1)c1nc2ccccc2s1,11.8 µM (inactive)
4,COc1cc(C)c(C(C)C)cc1S(=O)(=O)n1cnc(C)c1,7.61 µM (inactive)
5,C=CCNc1nc2c(c(=O)n(C)c(=O)n2C)n1CCCCCC,2.76 µM
6,CN(C)c1ccc2c(c1)OC(N)=C(C#N)C2c1cccc(F)c1 (configuration not stated),0.106 µM
7,CCOC(=O)N1CCN(S(=O)(=O)c2ccc(C(=O)Nc3ccc(F)cc3F)cc2)CC1,1.09 µM
8,Cn1ncc2c(Nc3ccc(-c4ccccc4)cc3)ncnc21,> 40 µM (inactive)
9,CCCCOc1ncnc2c1[nH]c1ccccc12,5.71 µM (inactive)
10,Cc1ccc2cc(CN(Cc3ccco3)C(=O)c3cccs3)c(=O)[nH]c2c1,2.6 µM
11,CN(Cc1ccccc1)S(=O)(=O)c1ccc(C(=O)Nc2nnc(C3CC3)o2)cc1,26 µM (inactive)
12,Cc1ccc(C)c(N2CCN(C(=O)c3ccc(CS(=O)(=O)c4ccccc4C)o3)CC2)c1,14.2 µM (inactive)
13,O=S(=O)(Nc1cccc2ncccc12)c1cccs1,6.36 µM (inactive)
14,Cc1nc(NC(C)c2ccccc2)c2oc3ccccc3c2n1 (configuration not stated),18.6 µM (inactive)
15,COc1cc2c(O)c3c(c(-c4ccc5c(c4)OCO5)c2cc1OC)C(=O)OC3,5.28 µM (inactive)
16,CC(C)c1cc(C(=O)Nc2cc(Cl)ccc2O)no1,> 40 µM (inactive)
17,CCOc1ccc(Cl)cc1S(=O)(=O)n1cnc2ccccc21,14.8 µM (inactive)
18,CCOc1ccc2nc(N3CCC(C(=O)N4CCN(c5ccccn5)CC4)CC3)sc2c1,23.7 µM (inactive)
19,CC1=C(C(=O)OCc2ccc3c(c2)OCO3)C(c2ccccc2)NC(=O)N1 (configuration not stated),17.3 µM (inactive)
20,COc1cccc2sc(Nc3nnc(-c4ccccc4Cl)o3)nc12,1.13 µM
21,CCOC(=O)C1=C(N)n2c(s/c(=C\c3cccs3)c2=O)=C(C(=O)OCC)C1c1cccs1 (configuration not stated),4.39 µM
22,COc1cc2c(cc1OC)CN(C(=O)c1cc3ccccc3oc1=O)CC2,5.04 µM (inactive)

row,SMILES,CC50
1,O=C(Nc1ccccc1C(F)(F)F)c1cc(-c2ccccc2O)on1,> 40 µM (inactive)
2,Cc1nn(C)c(C)c1CNC(=O)c1nn2c(c1Cl)NC(c1cccs1)CC2C(F)(F)F (configuration not stated),15.2 µM (inactive)
3,CS(=O)c1nc(-c2ccc(Br)cc2)cc(-c2ccccc2)c1C#N (configuration not stated),0.631 µM
4,Cn1c(SC2=CS(=O)(=O)c3ccccc32)nc2ccccc21,2.66 µM
5,COc1ccc(Nc2oc(-c3ccccc3Cl)nc2C#N)cc1,1.42 µM
6,Cc1nn(-c2nc3ccccc3s2)c(C)c1Oc1ccccc1O,> 40 µM (inactive)
7,COc1ccccc1-c1cc(C(F)(F)F)nc(S(=O)(=O)CCCC(=O)N2CCCCC2C)n1 (configuration not stated),4.22 µM
8,O=C(O)C1CC=CCC1C(=O)Nc1ccc(S(=O)(=O)N2CCCc3ccccc32)cc1 (configuration not stated),> 40 µM (inactive)
9,COc1cccc(Cn2c(-c3nonc3N)nc3ccccc32)c1,1.06 µM
10,Cc1c(C(=O)OCC2CCCO2)[nH]c2c1C(=O)CC(c1ccco1)C2 (configuration not stated),2.6 µM
11,COc1cc(C(=O)N2CCN(c3cc(Cl)ccc3Cl)CC2)cc(OC)c1OC,0.134 µM
12,CC(C)Cn1c(N)c(C(=O)CSc2ccc3c(c2)OCCO3)c(=O)n(C)c1=O,> 40 µM (inactive)
13,O=C(Nc1nc(-c2ccccc2)cs1)C1CCCN(S(=O)(=O)c2ccccc2)C1 (configuration not stated),20.9 µM (inactive)
14,CCOC(=O)CSC1=C(C#N)C(c2ccc(C)o2)CC(=O)N1 (configuration not stated),0.535 µM
15,Cn1cc(C(=O)c2ccc(Cl)cc2)cc1-c1nc2ccccc2n1C,23.3 µM (inactive)
16,CCOC(=O)COc1cccc2c(=O)n(CC(=O)NCc3ccc4c(c3)OCO4)ccc12,5.51 µM (inactive)
17,CCCCn1c(CN2CCN(c3cccc(Cl)c3)CC2)nc2c1c(=O)[nH]c(=O)n2C,2.84 µM
18,N=c1c2c(-c3ccccc3)c(-c3ccccc3)n(Cc3ccco3)c2ncn1Cc1ccco1,23.7 µM (inactive)
19,COc1cccc(CNC(=O)c2cc3oc4ccccc4c3n2C)c1OC,> 40 µM (inactive)
20,COc1cccc(OC)c1-c1nn2c(-c3cc(-c4ccccc4)n[nH]3)nnc2s1,8.6 µM (inactive)
21,COC(=O)c1[nH]c2c(c1C)C(=O)CC(c1ccccc1)C2 (configuration not stated),0.391 µM
22,Cc1ccc2c(c1)nnn2C1CCN(S(=O)(=O)c2ccc(C(=O)N3C(C)CCCC3C)cc2)CC1 (configuration not stated),9.39 µM (inactive)

row,SMILES,CC50
1,CC(C)Oc1cc(O)c2c(=O)c(-c3ccc(O)cc3)coc2c1,11 µM (inactive)
2,CCOC(=O)N1CCN(C(=O)c2ccccc2-c2ccccc2)CC1,1.91 µM
3,O=C(Nc1ccc2c(c1)nc1n2CCCCC1)c1cc(S(=O)(=O)N2CCOCC2)ccc1Cl,21.1 µM (inactive)
4,CCn1c(-c2ccc(N(C)C)cc2)nc2ccccc21,5.93 µM (inactive)
5,COc1cccc(N2CCN(C(=O)c3[nH]c(C)c(C(C)=O)c3C)CC2)c1,1.74 µM
6,COc1cc2c(cc1OC)C(C)N(C(=O)c1cc3ccccc3o1)CC2 (configuration not stated),24.4 µM (inactive)
7,Cc1cccc(Cn2c(NCCO)nc3c2c(=O)n(C)c(=O)n3C)c1,2.32 µM
8,C(=C\c1ccccc1)/CSc1nnc(-c2ccccn2)n1Cc1ccco1,2.28 µM
9,CCCn1nc(C(=O)N2CC(=O)Nc3ccccc32)c2ccccc2c1=O,2.81 µM
10,CCN(Cc1ccncc1)S(=O)(=O)c1ccc(C(C)=O)cc1,9.44 µM (inactive)
11,Cn1ncnc2c(=O)n(C)c(=O)nc1-2,2.06 µM
12,COc1ccc(OC)c(C2CC(=O)c3c([nH]c(C(=O)OC(C)C)c3C)C2)c1 (configuration not stated),1.08 µM
13,CSCc1nnc(NC(=O)c2ccc(S(=O)(=O)N(CC(C)C)CC(C)C)cc2)o1,21.1 µM (inactive)
14,Nc1ccc(N2CCCCCC2)cc1,26.3 µM (inactive)
15,O=c1cc(-c2ccccc2)[nH]c2nc3ccccc3n12,9.38 µM (inactive)
16,c1csc(CCNc2ncnc3sc4c(c23)CCC4)c1,13.2 µM (inactive)
17,CCOc1cccc(-n2nnnc2-c2ccc(OC)cc2)c1,1.06 µM
18,COc1ccc(Cn2c(=O)oc3ccc(C)cc32)cc1OC,13.1 µM (inactive)
19,CN(C)c1ccc(-c2nn3c(-c4ccccc4Cl)nnc3s2)cc1,0.312 µM
20,O=C(NCc1cccs1)C1CCN(c2ccc(S(=O)(=O)N3CCOCC3)cc2Cl)CC1,0.875 µM
21,COC(=O)C1=C(C)N(c2ccc(Cl)c(Cl)c2)C(=O)C1,5.37 µM (inactive)
22,CCc1ccc(NS(=O)(=O)c2cc(OC)ccc2OC)cc1,16.6 µM (inactive)

row,SMILES,CC50
1,Cc1cc(C)n2nc(SCC(=O)c3cc(C)n(-c4cc(C)on4)c3C)nc2n1,29.4 µM (inactive)
2,O=C(NC1CC1)c1cc2c(s1)-c1ccccc1OC2,15.6 µM (inactive)
3,CN(C)c1nc(N)nc(CSc2nnnn2-c2cccc3ccccc23)n1,6.97 µM (inactive)
4,COc1ccc(CC(=O)Nc2cccc(-c3nnc(-c4ccccc4)o3)c2)cc1OC,15.8 µM (inactive)
5,CCOc1ccc(-c2[nH]ncc2-c2ccc(OC)c(OC)c2)c(O)c1,1.21 µM
6,Oc1c(CN2CCCCC2)cc(Br)c2cccnc12,3.79 µM
7,COc1cc(CSc2nnnn2-c2ccc(C)cc2)cc(OC)c1OC,2.38 µM
8,CCn1c(SCC(=O)c2c[nH]c3ccccc23)nnc1-c1cccs1,8.26 µM (inactive)
9,COc1ccc(-c2cn3c(C)c(C(=O)Nc4cc(NC(C)=O)ccc4OC)sc3n2)cc1,2.23 µM
10,O=C(Nc1nc(-c2ccc(S(=O)(=O)N3CCCCCC3)cc2)cs1)c1cccs1,> 40 µM (inactive)
11,Cc1ccc(C2NC(=O)c3ccccc3N2)s1 (configuration not stated),4.16 µM
12,COCCNc1nc2c(c(=O)n(C)c(=O)n2C)n1Cc1cccc(C)c1,25.6 µM (inactive)
13,Cn1nc(CC(=O)Nc2ccc3c(c2)OCCO3)c2ccccc2c1=O,0.96 µM
14,CCOc1ccc2ccccc2c1C(=O)N1CCN(c2ccccc2)CC1,3.75 µM
15,Cc1ccc2[nH]c(=O)c(CN(Cc3ccco3)C(=O)c3ccncc3)cc2c1,6.52 µM (inactive)
16,O=C(Nc1ccc(N2CCCCC2)c(Cl)c1)c1cccnc1,> 40 µM (inactive)
17,CCOC(=O)N1CCN(CC(=O)Nc2c(C(=O)OC)[nH]c3ccc(Cl)cc23)CC1,> 40 µM (inactive)
18,Nc1nonc1-c1nc2ccccc2n1Cc1ccccc1,6.41 µM (inactive)
19,CCN1CCN(c2ncc3c(n2)CC(c2cc(OC)c(OC)c(OC)c2)CC3=O)CC1 (configuration not stated),2.26 µM
20,COc1ccc(C2=NOC(C(=O)NCc3ccccc3)C2)cc1 (configuration not stated),3.26 µM
21,CCCCCCn1ccc(=N)cc1,5.08 µM (inactive)
22,CCC(C)c1ccc(NC(=O)C2CCCN(c3ncccn3)C2)cc1 (configuration not stated),10.4 µM (inactive)

row,SMILES,CC50
1,CCOC(=O)c1[nH]c(C)c(C(=O)Nc2cccc(Cl)c2C)c1C,3.8 µM
2,COc1ccc(NC(=O)c2cnc(C)cn2)c2ncccc12,5.63 µM (inactive)
3,O=C(Nc1nnc(-c2cccs2)o1)c1cccc(C(F)(F)F)c1,25.7 µM (inactive)
4,Cc1cccc(N2CCN(c3cccc(C)c3)C2c2cccnc2)c1,15.8 µM (inactive)
5,COc1ccc(-n2nnnc2-c2cccc(OC)c2)cc1,0.195 µM
6,O=c1c2cc3ccccc3n2cnn1Cc1ccccc1F,16.4 µM (inactive)
7,O=c1oc2ccccc2cc1NCc1ccccc1O,> 40 µM (inactive)
8,O=C(Cc1ccc(-n2cccc2)cc1)NCc1cccs1,0.513 µM
9,CCOC(=O)C1(N(CC)CC)Sc2cc(C)ccc2NC1=O (configuration not stated),8.81 µM (inactive)
10,COc1cccc2sc(Nc3nc(-c4ccccn4)cs3)nc12,2.81 µM
11,Cc1ccc(C)c(-n2nnnc2Sc2nnnn2-c2ccccc2)c1,5.87 µM (inactive)
12,COC(=O)c1ccc(C)c(NS(=O)(=O)c2ccc3c(c2)OCCO3)c1,0.504 µM
13,O=C(NCc1cccs1)c1nc2c(nnn2Cc2ccccc2Cl)c(=O)[nH]1,14.8 µM (inactive)
14,O=C(CCc1ccccc1)Nc1ccc(Cl)cn1,2.15 µM
15,CCOC(=O)N1CCN(C(=O)c2cc(-c3ccc(OCC)cc3)nc3ccccc23)CC1,1.69 µM
16,COc1ccccc1-n1cnc2cc(NCc3ccco3)ccc21,0.313 µM
17,CCOc1ccc(S(=O)(=O)Nc2cc(OC)ccc2OC)cc1,0.145 µM
18,COc1ccc(CCNCc2csc3nc4ccccc4n23)cc1OC,8.02 µM (inactive)
19,COc1cc(-c2nnc3n2N=C(c2ccccc2)CS3)cc(OC)c1OC,0.392 µM
